From paper PMC6175941, “Hydrophobic alkyl chains substituted to the 8-position of cyclic nucleotides enhance activation of CNG and HCN channels by an intricate enthalpy - entropy compensation” (Scientific Reports, 2018)

Tests used:
Format in all cases: cell-based
[1] = target: T1, homotetrameric HCN2 channels (Mus musculus, UniProt O88703); experiment: Concentration-activation relationship of homotetrameric HCN2 channels, inside-out patches of Xenopus oocytes; details: for H (Hill coefficient) / EC50: homotetrameric HCN2 channels, mean; for EC50: pre-activation at -130 mV, instantaneous current at -100 mV
T1 construct: expressed in transfected cells; host or cells: Xenopus laevis oocytes injected with cRNA; inside-out patches
T1 sequence (O88703 1-863): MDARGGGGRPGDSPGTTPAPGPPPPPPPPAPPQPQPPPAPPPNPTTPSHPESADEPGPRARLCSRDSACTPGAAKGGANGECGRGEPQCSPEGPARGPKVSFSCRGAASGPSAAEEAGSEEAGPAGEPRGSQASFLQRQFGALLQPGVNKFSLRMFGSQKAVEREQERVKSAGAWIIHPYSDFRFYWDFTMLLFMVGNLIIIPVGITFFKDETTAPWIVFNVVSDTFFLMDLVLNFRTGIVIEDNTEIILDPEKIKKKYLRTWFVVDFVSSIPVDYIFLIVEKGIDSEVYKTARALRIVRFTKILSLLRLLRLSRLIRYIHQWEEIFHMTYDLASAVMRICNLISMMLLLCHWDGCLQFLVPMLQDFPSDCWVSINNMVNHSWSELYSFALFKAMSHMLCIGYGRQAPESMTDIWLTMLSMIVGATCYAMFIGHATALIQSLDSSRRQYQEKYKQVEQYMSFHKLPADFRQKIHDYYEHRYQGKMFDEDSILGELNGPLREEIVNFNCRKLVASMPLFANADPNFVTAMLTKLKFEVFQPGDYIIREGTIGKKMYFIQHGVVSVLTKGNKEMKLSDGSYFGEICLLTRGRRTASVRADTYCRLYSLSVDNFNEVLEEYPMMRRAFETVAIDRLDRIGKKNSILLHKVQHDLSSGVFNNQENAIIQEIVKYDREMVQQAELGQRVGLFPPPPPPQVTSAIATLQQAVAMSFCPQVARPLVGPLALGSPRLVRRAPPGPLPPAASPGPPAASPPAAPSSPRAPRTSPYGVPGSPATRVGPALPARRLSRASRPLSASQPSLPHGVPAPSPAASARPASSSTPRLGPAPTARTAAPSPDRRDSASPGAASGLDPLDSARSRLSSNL
Description: (§1) The subunits CNGA2 (accession No. AF126808), CNGA4 (accession No. U12623) and CNGB1b (accession No. AF068572) of rat olfactory channels as well as mouse HCN2 channels (NM008226) were subcloned in front of the T7 promoter of pGEMHEnew. The respective cRNAs were produced by using the mMESSAGE mMACHINE T7 Kit (Ambion, Austin, TX).
(§2) The oocytes were exposed to collagenase A (3 mg/ml; Roche, Grenzach-Wyhlen, Germany) for 105 min in Ca^2+-free Barth’s solution containing (in mM) 82.5 NaCl, 2 KCl, 1 MgCl2 2, and 5 Hepes, pH 7.4. Oocytes at stages IV and V were injected with 50–130 ng of cRNA encoding either CNGA2, CNGA2:CNGA4:CNGB1b (2:1:1 ratio) or HCN2 channels either manually of or by means of an injection robot (RoboInject®). The injected oocytes were incubated at 18 °C for up to 6 days in Barth’s solution containing (in mM) 84 NaCl, 1 KCl, 2.4 NaHCO3, 0.82 MgSO4, 0.41 CaCl2, 0.33 Ca(NO3)2, 7.5 TRIS, cefuroxime (4.0 µg × ml^−1), and penicillin/streptomycin (100 µg × ml^−1), pH 7.4.
(§3) Macroscopic currents were recorded from inside-out patches of the oocytes by using standard patch-clamp techniques. The patch pipettes were pulled from quartz tubing (P-2000, Sutter Instrument, Novato, USA) with an outer and inner diameter of 1.0 and 0.7 mm (VITROCOM, New Jersey, USA). The corresponding pipette resistance was 0.9–2.3 MΩ. The bath and pipette solution contained (in mM): 150 KCl, 1 EGTA, 5 Hepes (pH 7.4 with KOH) for CNG measurements. For HCN measurements the bath solution contained 100 mM KCl, 10 mM EGTA, 10 mM HEPES (pH 7.2) and 120 mM KCl, 10 mM HEPES, and 1.0 mM CaCl2 (pH 7.2) in the pipette. Recording was carried out at room temperature using an Axopatch 200B amplifier (Axon Instruments, Foster City, CA). Electrophysiology was controlled by the Patchmaster-software (HEKA Elektronik Dr. Schulze GmbH, Lambrecht, Germany). The sampling rate was 5 kHz and the filter implemented in the amplifier (4-pole Bessel) was set to 2 kHz. Measurements in HCN2 channels were generally started 3.5 min after patch excision to minimize channel run down during the measurement[14],[27],[70]. The solutions with the ligand concentrations to be tested were applied via a multi-barrel device to the patches with a flow rate of 0.8 to 1.2 ml/min.
(§4) I is the actual current amplitude and Imax the maximum current amplitude at a saturating cNMP concentration specified for each cNMP and channel. EC50 is the cNMP concentration generating the half maximum current and H the Hill coefficient.

[2] = target: T2, homotetrameric CNGA2 channels (Rattus norvegicus, UniProt Q00195); experiment: Concentration-activation relationship of homotetrameric CNGA2 channels, inside-out patches of Xenopus oocytes
T2 construct: expressed in transfected cells; host or cells: Xenopus laevis oocytes injected with cRNA; inside-out patches
T2 sequence (Q00195 1-664): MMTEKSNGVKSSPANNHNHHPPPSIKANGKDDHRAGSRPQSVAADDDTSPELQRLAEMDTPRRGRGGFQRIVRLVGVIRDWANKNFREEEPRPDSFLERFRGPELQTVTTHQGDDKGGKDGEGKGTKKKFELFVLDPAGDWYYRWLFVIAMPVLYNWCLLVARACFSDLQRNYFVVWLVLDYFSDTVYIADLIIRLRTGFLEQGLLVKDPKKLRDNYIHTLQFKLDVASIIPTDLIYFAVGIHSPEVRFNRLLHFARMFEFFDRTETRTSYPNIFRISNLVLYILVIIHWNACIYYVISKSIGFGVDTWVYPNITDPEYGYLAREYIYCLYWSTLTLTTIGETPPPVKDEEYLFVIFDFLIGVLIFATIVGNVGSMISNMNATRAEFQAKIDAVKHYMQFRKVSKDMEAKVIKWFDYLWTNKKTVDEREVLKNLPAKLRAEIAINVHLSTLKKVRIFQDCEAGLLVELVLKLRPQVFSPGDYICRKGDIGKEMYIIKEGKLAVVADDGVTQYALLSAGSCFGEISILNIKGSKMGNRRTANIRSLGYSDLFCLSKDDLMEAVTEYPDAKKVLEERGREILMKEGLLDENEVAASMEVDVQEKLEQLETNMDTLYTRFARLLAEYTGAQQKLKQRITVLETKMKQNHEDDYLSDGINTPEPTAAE
Description: (§5) For each cNMP derivative a complete concentration-activation relationship was recorded, and the data points were fitted with the Hill equation (equation 1) yielding the concentration of half maximum activation (EC50) and the Hill coefficient H (Fig. 1b,c).
as §1
as §2, with “Oocytes” for “The oocytes were exposed to collagenase A (3 mg/ml; Roche, Grenzach-Wyhlen, Germany) for 105 min in Ca^2+-free Barth’s solution containing (in mM) 82.5 NaCl, 2 KCl, 1 MgCl2 2, and 5 Hepes, pH 7.4. Oocytes”
as §3, §4

[3] = target: T3, heterotetrameric CNGA2:CNGA4:CNGB1b channels (Rattus norvegicus, UniProt A0A8I5ZN27+Q00195+Q64359); experiment: Concentration-activation relationship of heterotetrameric CNGA2:CNGA4:CNGB1b channels, inside-out patches of Xenopus oocytes
T3 construct: expressed in transfected cells; host or cells: Xenopus laevis oocytes co-injected with cRNAs (2:1:1); inside-out patches
Description: as §5, §1
as §2, with “Oocytes” for “The oocytes were exposed to collagenase A (3 mg/ml; Roche, Grenzach-Wyhlen, Germany) for 105 min in Ca^2+-free Barth’s solution containing (in mM) 82.5 NaCl, 2 KCl, 1 MgCl2 2, and 5 Hepes, pH 7.4. Oocytes”
as §3, §4

[4] = fit of the concentration-activation relationship shown in Fig. 1b, CNGA2 channels
[5] = homotetrameric CNGA2 channels, late current at +10 mV, mean
[6] = homotetrameric CNGA2 channels, mean
[7] = fit of the concentration-activation relationship shown in Fig. 1c, CNGA2:CNGA4:CNGB1b channels
[8] = heterotetrameric CNGA2:CNGA4:CNGB1b channels, late current at +10 mV, mean
[9] = heterotetrameric CNGA2:CNGA4:CNGB1b channels, mean
[10] = CNGA2 channels, numeric mean values of box plots (Fig. 2a,b, Fig. 3) and text

T3 sequence (Q64359 whole entry, one chain of several): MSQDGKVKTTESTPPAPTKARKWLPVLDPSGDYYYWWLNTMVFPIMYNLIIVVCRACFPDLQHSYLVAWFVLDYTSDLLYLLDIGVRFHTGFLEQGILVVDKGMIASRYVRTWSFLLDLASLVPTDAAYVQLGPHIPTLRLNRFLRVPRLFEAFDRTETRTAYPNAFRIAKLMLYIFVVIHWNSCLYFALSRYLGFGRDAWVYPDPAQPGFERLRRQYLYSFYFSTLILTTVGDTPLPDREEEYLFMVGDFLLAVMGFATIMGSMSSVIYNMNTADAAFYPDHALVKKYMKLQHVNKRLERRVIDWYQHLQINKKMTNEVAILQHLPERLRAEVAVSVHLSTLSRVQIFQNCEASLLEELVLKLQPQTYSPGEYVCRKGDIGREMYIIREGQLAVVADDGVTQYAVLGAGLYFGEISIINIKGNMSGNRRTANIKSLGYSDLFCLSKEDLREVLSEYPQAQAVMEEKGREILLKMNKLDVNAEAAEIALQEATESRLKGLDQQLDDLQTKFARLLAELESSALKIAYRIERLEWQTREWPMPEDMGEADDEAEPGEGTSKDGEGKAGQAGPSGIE
T3 sequence (A0A8I5ZN27 1-858 isoform A0A8I5ZN27-2, one chain of several): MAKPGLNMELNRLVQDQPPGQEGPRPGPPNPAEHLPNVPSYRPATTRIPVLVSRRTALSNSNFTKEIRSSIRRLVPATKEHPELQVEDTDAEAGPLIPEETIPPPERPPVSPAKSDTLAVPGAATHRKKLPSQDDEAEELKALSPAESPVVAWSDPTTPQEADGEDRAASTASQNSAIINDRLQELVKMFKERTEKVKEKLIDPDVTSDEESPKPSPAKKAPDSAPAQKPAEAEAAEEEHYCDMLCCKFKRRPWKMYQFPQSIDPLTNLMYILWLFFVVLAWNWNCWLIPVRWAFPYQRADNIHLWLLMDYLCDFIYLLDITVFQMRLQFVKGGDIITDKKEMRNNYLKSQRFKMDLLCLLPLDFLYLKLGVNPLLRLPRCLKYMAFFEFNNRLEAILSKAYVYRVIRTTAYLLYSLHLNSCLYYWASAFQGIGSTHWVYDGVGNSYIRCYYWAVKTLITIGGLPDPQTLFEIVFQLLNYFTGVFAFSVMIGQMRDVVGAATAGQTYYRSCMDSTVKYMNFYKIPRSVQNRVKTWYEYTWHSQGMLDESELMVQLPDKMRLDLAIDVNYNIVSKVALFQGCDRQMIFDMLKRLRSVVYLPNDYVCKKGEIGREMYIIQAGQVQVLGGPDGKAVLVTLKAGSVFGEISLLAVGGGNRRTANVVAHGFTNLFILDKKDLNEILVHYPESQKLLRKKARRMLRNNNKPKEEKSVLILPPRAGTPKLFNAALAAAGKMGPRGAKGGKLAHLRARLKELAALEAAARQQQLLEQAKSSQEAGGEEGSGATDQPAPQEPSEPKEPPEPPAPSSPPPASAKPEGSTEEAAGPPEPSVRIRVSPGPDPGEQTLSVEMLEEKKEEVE

EC50 [2, 5] [µM] | H (Hill coefficient) [2, 6] | EC50 [3, 8] [µM] | H (Hill coefficient) [3, 9] | Compound | also measured
1.4 | 3.1 | 0.95 | 2.5 | CC(=O)NCCCCCCSc1nc2c(N)ncnc2n1C1OC2COP(=O)(O)OC2C1O (stereo not shown) [5A, 8-(Ac)AHT-cAMP] | H (Hill coefficient) [1]: 0.8; EC50 [1]: 0.0197 µM
0.63 | 2.3 | 0.29 | 3.9 | NCCCCCCCCCCSc1nc2c(N)ncnc2n1C1OC2COP(=O)(O)OC2C1O (stereo not shown) [6A, 8-ADT-cAMP] | effect at high concentration ([3]; CNGA2:CNGA4:CNGB1b channels, at concentrations > 2 µM): unusual inhibition
0.06 | 1.8 | 0.3 | 1.6 | NCCCCCCCCCCSc1nc2c(=O)[nH]c(N)nc2n1C1OC2COP(=O)(O)OC2C1O (stereo not shown) [6G, 8-ADT-cGMP] | –
0.05 | 2.2 | 0.14 | 1.9 | CC(=O)NCCCCCCCCCCSc1nc2c(=O)[nH]c(N)nc2n1C1OC2COP(=O)(O)OC2C1O (stereo not shown) [7G, 8-(Ac)ADT-cGMP] | –
0.55 | 2.7 | 1.1 | 1.6 | CC(=O)NCCOCCOCCSc1nc2c(=O)[nH]c(N)nc2n1C1OC2COP(=O)(O)OC2C1O (stereo not shown) [8G, 8-(Ac)APT-cGMP] | –
46.2 | 2.3 | 7.1 | 2.2 | CC(=O)NCCOCCOCCC(=O)NCCSc1nc2c(N)ncnc2n1C1OC2COP(=O)(O)OC2C1O (stereo not shown) [9A, 8-(Ac)APET-cAMP] | –
0.52 | 2.3 | 1.1 | 2.0 | CC(=O)NCCOCCOCCC(=O)NCCSc1nc2c(=O)[nH]c(N)nc2n1C1OC2COP(=O)(O)OC2C1O (stereo not shown) [9G, 8-(Ac)APET-cGMP] | –
0.34 | 2.6 | 0.63 | 1.9 | CC(=O)NCC(=O)NCCSc1nc2c(=O)[nH]c(N)nc2n1C1OC2COP(=O)(O)OC2C1O (stereo not shown) [10G, 8-(Ac)AGET-cGMP] | –
29.4 | 1.9 | 5.1 | 2.5 | CC(=O)NCC(=O)NCC(=O)NCCSc1nc2c(N)ncnc2n1C1OC2COP(=O)(O)OC2C1O (stereo not shown) [11A, 8-(Ac)AGGET-cAMP] | EC50 [2, 10]: 29.4 µM
0.33 | 2.4 | 1 | 1.7 | CC(=O)NCC(=O)NCC(=O)NCCSc1nc2c(=O)[nH]c(N)nc2n1C1OC2COP(=O)(O)OC2C1O (stereo not shown) [11G, 8-(Ac)AGGET-cGMP] | –

Continued, compound first:

Compound | EC50 [2, 5] [µM] | H (Hill coefficient) [2, 6] | EC50 [3, 8] [µM] | H (Hill coefficient) [3, 9] | also measured
Nc1ncnc2c1ncn2C1OC2COP(=O)(O)OC2C1O (stereo not shown) [1A, cAMP, reference compound] | – | – | – | – | H ([1]; individual experiment, Fig. 5b, HCN2 channels): 1.28
Nc1nc2c(ncn2C2OC3COP(=O)(O)OC3C2O)c(=O)[nH]1 (stereo not shown) [1G, cGMP, reference compound] | 1.8 | 2.6 | 1.3 | 2.5 | EC50 [2, 4]: 1.47 µM; H [2, 4]: 2.52; EC50 [3, 7]: 1.24 µM; H [3, 7]: 2.09
NCCSc1nc2c(N)ncnc2n1C1OC2COP(=O)(O)OC2C1O (stereo not shown) [2A, 8-AET-cAMP] | – | 1.8 | 13.3 | – | agonist type ([2]; CNGA2 channels): partial agonist; EC50 [2, 10]: 128 µM
NCCSc1nc2c(=O)[nH]c(N)nc2n1C1OC2COP(=O)(O)OC2C1O (stereo not shown) [2G, 8-AET-cGMP] | – | 2.4 | 1.5 | 1.8 | EC50 [2, 10]: 0.83 µM
CC(=O)NCCSc1nc2c(N)ncnc2n1C1OC2COP(=O)(O)OC2C1O (stereo not shown) [3A, 8-(Ac)AET-cAMP] | – | 2.3 | 4.1 | 1.8 | EC50 [2, 10]: 9.9 µM; H (Hill coefficient) [1]: 1.7; EC50 [1]: 0.0706 µM
CC(=O)NCCSc1nc2c(=O)[nH]c(N)nc2n1C1OC2COP(=O)(O)OC2C1O (stereo not shown) [3G, 8-(Ac)AET-cGMP] | – | 1.8 | 0.28 | 2.0 | EC50 [2, 10]: 0.17 µM
NCCCCCCSc1nc2c(N)ncnc2n1C1OC2COP(=O)(O)OC2C1O (stereo not shown) [4A, 8-AHT-cAMP] | 3.1 | 2.3 | 1.4 | 2.5 | –
NCCCCCCSc1nc2c(=O)[nH]c(N)nc2n1C1OC2COP(=O)(O)OC2C1O (stereo not shown) [4G, 8-AHT-cGMP] | 0.09 | 2.5 | 0.62 | 1.3 | –
